The results in this text go back to ChEMBL document CHEMBL4184164, “Design, synthesis and biological evaluation of novel oseltamivir derivatives as potent neuraminidase inhibitors” (Bioorg Med Chem Lett, 2017).

The target of assay [1] is T1, Sialidase (Clostridium perfringens, UniProt P10481).
T1 sequence (P10481 whole entry): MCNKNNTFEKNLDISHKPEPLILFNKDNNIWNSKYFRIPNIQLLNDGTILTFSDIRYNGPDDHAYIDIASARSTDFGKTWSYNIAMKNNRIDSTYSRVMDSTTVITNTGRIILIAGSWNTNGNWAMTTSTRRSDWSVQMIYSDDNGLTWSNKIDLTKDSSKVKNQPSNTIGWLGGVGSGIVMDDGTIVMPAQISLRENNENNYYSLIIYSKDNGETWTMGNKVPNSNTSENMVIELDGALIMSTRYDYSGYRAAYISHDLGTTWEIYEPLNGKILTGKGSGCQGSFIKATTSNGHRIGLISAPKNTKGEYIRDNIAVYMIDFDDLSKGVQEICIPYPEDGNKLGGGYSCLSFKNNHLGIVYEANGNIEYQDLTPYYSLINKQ
As to the kind of experiment: Inhibition of Clostridium perfringenes neuraminidase activity using 4-methylumbelliferyl-1-alpha-D-N-acetylneuramic acid sodium salt hydrate as substrate by fluorescence based assay.

The test system of assay [2] is Influenza A virus. As to the kind of experiment: microbe, parasite or virus in culture. Particulars: A/WSN/1933(H1N1), MDCK.

Molecules are shown by their SMILES.

In the case of `CCCN[C@@H]1C=C(C(=O)O)C[C@H](N)[C@H]1NC(C)=O`, the IC50 in assay [1] (read-out: pIC50 (converted)) was 200 nM.

With `CCCN(CC)[C@@H]1C=C(C(=O)O)C[C@H](N)[C@H]1NC(C)=O`, in assay [1] (read-out: pIC50 (converted)), the IC50 is 89.9 nM.

`CCC(CC)N(C)[C@@H]1C=C(C(=O)O)C[C@H](N)[C@H]1NC(C)=O`: in assay [1] (read-out: pIC50 (converted)), the IC50 is 6 nM.

Consider `CCC(=O)N[C@@H]1C=C(C(=O)O)C[C@H](N)[C@H]1NC(C)=O`, for which the IC50 in assay [1] (read-out: pIC50 (converted)) is 2700 nM.

`CCCCN(CC)[C@@H]1C=C(C(=O)O)C[C@H](N)[C@H]1NC(C)=O`: in assay [1] (read-out: pIC50 (converted)), the IC50 was 84.9 nM.

As to `CC(=O)N[C@H]1[C@H](N(C)CCc2ccccc2)C=C(C(=O)O)C[C@@H]1N`, in assay [1] (read-out: pIC50 (converted)), the IC50 was 100 nM.

As for `CC[C@@H](C)O[C@@H]1C=C(C(=O)O)C[C@H](NC(=N)N)[C@H]1NC(C)=O`, in assay [1] (read-out: pIC50 (converted)), the IC50 is 0.5 nM.

On to `CC(=O)N[C@@H]1[C@@H](N)CC(C(=O)O)=C[C@H]1Oc1ccccc1`, for which the IC50 in assay [1] (read-out: pIC50 (converted)) is 530 nM.

Turning to `CCC(CC)O[C@@H]1C(F)=C(C(=O)O)C[C@H](N)[C@H]1NC(C)=O`, the IC50 in assay [1] (read-out: pIC50 (converted)) is 3 nM.

As to `CCCCCCC[C@H](CC)O[C@@H]1C=C(C(=O)O)C[C@H](N)[C@H]1NC(C)=O`, in assay [1] (read-out: pIC50 (converted)), the IC50 was 1 nM.

`CC(=O)N[C@@H]1[C@@H](N)CC(C(=O)O)=C[C@H]1OCc1ccccc1`: in assay [1] (read-out: pIC50 (converted)), the IC50 was 619 nM.

For the compound `CCCO[C@@H]1C=C(C(=O)O)C[C@H](N=C(N)N)[C@H]1NC(C)=O`, in assay [1] (read-out: pIC50 (converted)), the IC50 was 2 nM.

`C=CC[C@H](CC)O[C@@H]1C=C(C(=O)O)C[C@H](N)[C@H]1NC(C)=O`: the IC50 in assay [1] (read-out: pIC50 (converted)) is 1 nM.

As for `CC(=O)N[C@H]1[C@H](O)C=C(C(=O)O)C[C@@H]1N=C(N)N`, the IC50 in assay [1] (read-out: pIC50 (converted)) is 100 nM.

Consider `CC[C@@H](CCC1CCCCC1)O[C@@H]1C=C(C(=O)O)C[C@H](N)[C@H]1NC(C)=O`, for which, in assay [1] (read-out: pIC50 (converted)), the IC50 was 1 nM.

Regarding `CC(=O)N[C@@H]1[C@@H](N)CC(C(=O)O)=C[C@H]1NC(=O)C(C)C`, the IC50 in assay [1] (read-out: pIC50 (converted)) is 6400 nM.

Regarding `CC(=O)N[C@H]1[C@H](N(C)C2CCCCC2)C=C(C(=O)O)C[C@@H]1N`, the IC50 in assay [1] (read-out: pIC50 (converted)) was 200 nM.

Turning to `CCC(CC)N[C@@H]1C=C(C(=O)O)C[C@H](N)[C@H]1NC(C)=O`, the IC50 in assay [1] (read-out: pIC50 (converted)) is 11 nM.

Turning to `CC[C@H](C)O[C@@H]1C=C(C(=O)O)C[C@H](N)[C@H]1NC(C)=O`, the IC50 in assay [1] (read-out: pIC50 (converted)) is 10 nM.

Regarding `CC[C@H](C)O[C@@H]1C=C(C(=O)O)C[C@H](NC(=N)N)[C@H]1NC(C)=O`, in assay [1] (read-out: pIC50 (converted)), the IC50 is 0.5 nM.

Consider `CC(=O)N[C@@H]1[C@@H](N)CC(C(=O)O)=C[C@H]1OC(C)C`, for which the IC50 in assay [1] (read-out: pIC50 (converted)) was 180 nM.

In the case of `CCC(CC)C(=O)N[C@@H]1C=C(C(=O)O)C[C@H](N)[C@H]1NC(C)=O`, in assay [1] (read-out: pIC50 (converted)), the IC50 is 4000 nM.

`CCCN(CCC)[C@@H]1C=C(C(=O)O)C[C@H](N)[C@H]1NC(C)=O`: in assay [1] (read-out: pIC50 (converted)), the IC50 is 12 nM.

Regarding `CCCCN(C)[C@@H]1C=C(C(=O)O)C[C@H](N)[C@H]1NC(C)=O`, in assay [1] (read-out: pIC50 (converted)), the IC50 was 180 nM.

Consider `CC[C@@H](CC1CCCCC1)O[C@@H]1C=C(C(=O)O)C[C@H](N)[C@H]1NC(C)=O`, for which, in assay [1] (read-out: pIC50 (converted)), the IC50 is 16 nM.

Consider `CC(=O)N[C@@H]1[C@@H](N)CC(C(=O)O)=C[C@H]1OCCC(F)(F)F`, for which the IC50 in assay [1] (read-out: pIC50 (converted)) is 225 nM.

In the case of `CC(=O)N[C@@H]1[C@@H](N)CC(C(=O)O)=C[C@H]1OC1CCCC1`, the IC50 in assay [1] (read-out: pIC50 (converted)) is 22 nM.

As for `COCO[C@@H]1C=C(C(=O)O)C[C@H](N)[C@H]1NC(C)=O`, the IC50 in assay [1] (read-out: pIC50 (converted)) is 2000 nM.

Regarding `CC[C@H](CCc1ccccc1)O[C@@H]1C=C(C(=O)O)C[C@H](N)[C@H]1NC(C)=O`, the IC50 in assay [1] (read-out: pIC50 (converted)) is 12 nM.

Take `CC(=O)N[C@@H]1[C@@H](N)CC(C(=O)O)=C[C@H]1OCC(C)C`: the IC50 in assay [1] (read-out: pIC50 (converted)) is 200 nM.

Consider `CC(=O)N[C@@H]1[C@@H](N)CC(C(=O)O)=C[C@H]1OCCCc1ccc(-c2ccccc2)cc1`, for which, in assay [1] (read-out: pIC50 (converted)), the IC50 is 89.9 nM.

As to `CCC(CC)O[C@@H]1C=C(C(=O)O)C[C@H](NC(=N)N)[C@H]1NC(C)=O`, the IC50 in assay [1] (read-out: pIC50 (converted)) was 0.5 nM.

For `CCCCO[C@@H]1C=C(C(=O)O)C[C@H](N=C(N)N)[C@H]1NC(C)=O`, the IC50 in assay [1] (read-out: pIC50 (converted)) is 3 nM.

With `CCOC(=O)C1=C[C@@H](OC(CC)CC)[C@H](NC(C)=O)[C@@H](N)C1` [OSELTAMIVIR], the IC50 stood at 579 nM in assay [2] and 61100 nM in assay [1] (read-out: IC50).

Consider `CCC(CC)[C@H](NC(C)=O)[C@@H]1[C@H](O)[C@@H](C(=O)O)C[C@H]1NC(=N)N` [PERAMIVIR ANHYDROUS], for which the IC50 in assay [2] came out at 1720 nM; in assay [1] (read-out: IC50), 39600 nM.
